Assay results taken from patent publication US8895585B2, “Nicotinamide derivative or salt thereof” (FUJIFILM Corporation, priority 2010, dated 2014).
pIC50: −log10 of the molar value.

Legend:
male DBA/1J mice = assay: Mouse type-II collagen-induced arthritis (prophylactic and therapeutic administration test); format: in vivo; conditions: for advancement of arthritis after the onset (arthritis score): prophylactic administration test, once daily Day 21 to Day 34, 1 to 30 mg/kg/day
Experimental: The compounds synthesized in Example 8-1, Example 4-17, and Example 6-49 were tested to examine effects upon mouse type II collagen arthritis. To 2 mg/mL bovine type II collagen solution (Koken Co., Ltd.) dissolved in 0.1 mol/L acetic acid, an equal amount of Freund's complete adjuvant (Wako Pure Chemical Industries, Ltd.) was added to prepare an emulsion. A portion of the emulsion was intradermally injected into the tail bases of 7- or 8-week-old male DBA/1J mice (Charles River Laboratories Japan, Inc.) at a dose of 0.2 mL per mouse (antigen amount: 0.2 mg/mouse) on Day 0 and Day 21 twice, so as to induce arthritis. Each compound was administered once daily from Day 21 to Day 34 in the prophylactic administration test (1 to 30 mg/kg/day), and administered once daily from Day 27 to Day 35 in the therapeutic administration test (25 mg/kg/day). Arthritis scores for four limbs for each mouse were determined starting from Day 21. Specifically, the total score of four limbs of a mouse was designated as the individual arthritis score (12 points at a maximum per mouse) based on the following: score 0: no change; score 1: swelling of 1 or 2 digit joints or mild swelling of the carpal region/the ankle region alone; score 2: swelling of joints of at least 3 digits or obvious swelling of the carpal region/the ankle region; and score 3: obvious swelling over forelimbs or hindlimbs.

female Lewis rats = assay: Rat type-II-collagen-induced arthritis; format: in vivo; conditions: oral administration at 10 mg/kg/day, once daily Day 7 to Day 20, hindlimb volume by plethysmometer, read-out: inhibition of hindlimb swelling compared with the control group
Experimental: The compounds were tested to examine effects upon rat type II collagen arthritis. To 3 mg/mL bovine type II collagen solution (Collagen Gijutsu Kenshu-Kai) dissolved in 0.05 mol/L acetic acid, an equal amount of Freund's incomplete adjuvant (Wako Pure Chemical Industries, Ltd.) was added to prepare an emulsion. A portion of the emulsion (0.5 ml) was intradermally injected into the tail bases of 7- or 8-week-old female Lewis rats (Charles River Laboratories Japan, Inc.) (Day 0). Each rat was subjected to the same treatment on Day 7 after the initial inoculation so as to induce arthritis. Each test compound was orally administered from Day 7 to Day 20 once daily. At a given time during the period from Day 7 to Day 21, the rat hindlimb volume was determined using a plethysmometer (UGO BASILE), and the result was designated as an arthritis index. The following compound group inhibited hindlimb swelling by 85% or greater compared with the control group in the case of oral administration at 10 mg/kg/day: the compounds of Example 4-17, Example 6-49, Example 6-117, Example 6-157, Example 6-249, Example 6-322, Example 6-375, and Example 6-395.

[1] = tested on: 170 types of kinases excluding Syk; assay: Kinase selectivity, Profiler Pro kits (Caliper); format: biochemical; conditions: test compound 100 nM
Experimental: The concentrations of test compounds were adjusted to 100 nM. The test compounds were examined using Profiler Pro kits (Caliper) in terms of activity against each of 170 types of kinases excluding Syk. […] A compound (Example 6-157) having a kinase inhibitory rate of 75% or more with respect to 12 types of kinases was also obtained. Further, an inhibitor (Example 6-373) having a kinase inhibitory rate of 75% or more with respect to 24 types of kinases was obtained.

[2] = biological target: T1, glutathione S-transferase (GST)-fused full-length human Syk protein (Homo sapiens, UniProt P43405); assay: Syk enzyme assay; format: biochemical; conditions: read-out: Syk-inhibitory activity (IC50)
T1 construct: (GST)-fused full-length human Syk protein; GST (glutathione S-transferase); purchased Carna Biosciences
Method in brief: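 IC50 values come from a time-resolved FRET readout (615 and 665 nm) of substrate phosphorylation, measured after an EDTA stop and 1 h antibody binding. The kinase reaction ran 40 min at room temperature with 27 μM ATP and 0.4 μM biotin-peptide, following a 15 min compound preincubation with baculovirus-made GST-full-length human Syk.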

female BALB/c mice = assay: Mouse type-II-collagen-antibody-induced arthritis; format: in vivo; conditions: intraperitoneal 30 mg/kg/day, twice daily, Day 0 to Day 13
Experimental: The compound synthesized in Example 8-1 was tested to examine effects upon mouse-type-II-collagen-antibody-induced arthritis. An anti-type II collagen antibody mixture (Chondrex) was intraperitoneally injected into 7-week-old female BALB/c mice (Charles River Laboratories Japan, Inc.) (1.5 mg per mouse) (Day 0). An LPS solution 0111:B4 (Chondrex) (50 μg) was intraperitoneally injected thereinto three days later (Day 3), thereby inducing arthritis. Swelling scores were determined for four limbs of each mouse once daily from Day 3 to Day 14. Specifically, evaluation was carried out using a twelve-point scale for the sum of the scores for the four limbs for each mouse: 0 point: no change; 1 point: mild erythema/swelling on the carpal region or the ankle/calcaneal region; 2 points: obvious swelling on the carpal region or the ankle/calcaneal region; 3 points: severe swelling over forelimbs or hindlimbs. The compound synthesized in Example 8-1 was intraperitoneally administered at 30 mg/kg/day twice daily on consecutive days (from Day 0 to Day 13). The bone destruction score was determined based on soft X-ray images of four limbs taken on Day 14. […]

number of kinases with kinase inhibitory rate of 75% or more [1]	Structure (SMILES)	advancement of arthritis after the onset (arthritis score) (male DBA/1J mice)	inhibition in vivo at 10 mg/kg/day (female Lewis rats) [%]	other results
12 types of kinases	COCCOc1cc(Nc2nc(N[C@@H](CN)CC(C)C)c(F)cc2C(N)=O)ccn1 [Example 6-157]	–	≥ 85	–
24 types of kinases	C[C@H](N)[C@H](Nc1nc(Nc2cncc(-n3cccn3)c2)c(C(N)=O)cc1F)C1CC1 [Example 6-373, 2-((5-(1H-pyrazol-1-yl)pyridin-3-yl)amino)-6-(((1R,2S)-2-amino-1-cyclopropylpropyl)amino)-5-fluoronicotinamide]	–	–	–

Second part, the molecule before the results:

Structure (SMILES)	number of kinases with kinase inhibitory rate of 75% or more [1]	advancement of arthritis after the onset (arthritis score) (male DBA/1J mice)	inhibition in vivo at 10 mg/kg/day (female Lewis rats) [%]	other results
Cc1ccc(Nc2nc(N[C@@H]3CCCC[C@@H]3N)c(F)cc2C(N)=O)cn1 (relative stereo) [Example 4-17, 6-(cis-2-aminocyclohexylamino)-5-fluoro-2-(6-methylpyridin-3-ylamino)nicotinamide]	–	strongly inhibited	≥ 85	–
Cc1cncc(Nc2nc(N[C@@H]3CCCC[C@@H]3N)c(F)cc2C(N)=O)c1 (relative stereo) [Example 6-49, 6-(cis-2-aminocyclohexylamino)-5-fluoro-2-(5-methylpyridin-3-ylamino)nicotinamide]	–	strongly inhibited	≥ 85	advancement of arthritis (arthritis score) (male DBA/1J mice; therapeutic administration test, once daily Day 27 to Day 35, 25 mg/kg/day): strongly inhibited
COc1cc(Nc2nc(NCCN)c(F)cc2C(N)=O)cc(OC)c1 [Example 8-1, 6-(2-aminoethylamino)-2-(3,5-dimethoxyphenylamino)-5-fluoronicotinamide]	–	strongly inhibited	–	pIC50 [2]: ≥ 6.00; increase in the swelling score (female BALB/c mice; scored Day 3 to Day 14): almost completely inhibited; increase in the bone destruction score (female BALB/c mice; soft X-ray images on Day 14): almost completely inhibited
